Experimental data reported in EP4782445A1, “CDK KINASE INHIBITOR AND USE THEREOF” (Abbisko Therapeutics Co., Ltd., priority 2023, dated 2025).

Columns and labels:
CDK6/cyclin D3 = biological target: T1, CDK6/cyclin D3 (Homo sapiens, UniProt Q00534); assay: In vitro biochemical kinase activity assay for CDK6/cyclin D3 (HTRF)
T1 construct: purchased Carna
Procedure: III. In Vitro Biochemical Kinase Activity Assay for CDK6/Cyclin D3
The inhibitory effects of the compounds of the present invention on CDK6/cyclin D3 kinase activity were determined using an HTRF assay. The experimental process was as follows: 1. The kinase reaction was carried out in a 384-well plate. 0.02 nM CDK6/cyclin D3 (Carna), 1 mM (or 100 µM) ATP, and 0.3 µM biotin-labeled substrate protein Rb-biotin (Cisbio) were incubated at 30°C for 60 min in a buffer system composed of 5 mM MgCl2, 1 mM DTT, and basal kinase buffer (Cisbio). 2. The detection solution (Cisbio, containing reagents that specifically recognize phosphorylated Rb and Rb-biotin proteins, respectively) was added. The plate was then sealed with a film (to protect from light and volatilization) and incubated at 25°C for 60 min. 3. The plate was transferred to an Envision plate reader to detect FRET signals. (The 665/615 ratio was calculated by reading the emission at 665 nm and 615 nM, respectively.) 4. The IC50 values were determined by analyzing the inhibition at varying compound concentrations using Model 205 in the XLfit software.

CDK4/cyclin D3 = biological target: T2, CDK4/cyclin D3 (Homo sapiens, UniProt P11802); assay: In vitro biochemical kinase activity assay for CDK4/cyclin D3 (HTRF)
T2 construct: purchased Carna
T2 sequence (P11802 whole entry): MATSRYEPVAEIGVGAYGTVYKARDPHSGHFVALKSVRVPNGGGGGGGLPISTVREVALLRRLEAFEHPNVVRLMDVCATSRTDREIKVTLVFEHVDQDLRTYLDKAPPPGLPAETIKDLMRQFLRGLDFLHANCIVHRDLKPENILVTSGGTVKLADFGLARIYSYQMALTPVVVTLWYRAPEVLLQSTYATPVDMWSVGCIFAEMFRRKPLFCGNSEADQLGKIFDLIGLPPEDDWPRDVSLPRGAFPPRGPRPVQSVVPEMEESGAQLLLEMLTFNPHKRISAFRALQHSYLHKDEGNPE
T2 sequence (P30281 whole entry partner): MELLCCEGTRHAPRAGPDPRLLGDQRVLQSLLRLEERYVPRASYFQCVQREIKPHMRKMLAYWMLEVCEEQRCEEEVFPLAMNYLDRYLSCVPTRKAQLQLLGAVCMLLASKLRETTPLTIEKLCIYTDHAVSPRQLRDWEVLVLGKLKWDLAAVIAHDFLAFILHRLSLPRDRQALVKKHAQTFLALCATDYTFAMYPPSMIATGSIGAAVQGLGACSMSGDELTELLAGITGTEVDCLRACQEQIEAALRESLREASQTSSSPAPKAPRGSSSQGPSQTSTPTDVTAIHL
Procedure: II. In Vitro Biochemical Kinase Activity Assay for CDK4/Cyclin D3
The inhibitory effects of the compounds of the present invention on CDK4/cyclin D3 kinase activity were determined using an HTRF assay. The experimental process was as follows: • 1. The kinase reaction was carried out in a 384-well plate. 4.9 nM CDK4/cyclin D3 (Carna), 1 mM (or 80 µM) ATP, and 0.3 µM biotin-labeled substrate protein Rb-biotin (Cisbio) were incubated at 30°C for 90 min in a buffer system composed of 50 mM MgCl2, 1 mM DTT, and basal kinase buffer (Cisbio). • 2. The detection solution (Cisbio, containing reagents that specifically recognize phosphorylated Rb and Rb-biotin proteins, respectively) was added. The plate was then sealed with a film (to protect from light and volatilization) and incubated at 25°C for 60 min. • 3. The plate was transferred to an Envision plate reader to detect FRET signals. (The 665/615 ratio was calculated by reading the emission at 665 nm and 615 nM, respectively.) • 4. The IC50 values were determined by analyzing the inhibition at varying compound concentrations using Model 205 in the XLfit software.

[1] = data marked with *: 1 mM ATP in Step 1
[2] = unmarked data: 100 µM ATP in Step 1
[3] = unmarked data: 80 µM ATP in Step 1

T1 sequence (Q00534 whole entry): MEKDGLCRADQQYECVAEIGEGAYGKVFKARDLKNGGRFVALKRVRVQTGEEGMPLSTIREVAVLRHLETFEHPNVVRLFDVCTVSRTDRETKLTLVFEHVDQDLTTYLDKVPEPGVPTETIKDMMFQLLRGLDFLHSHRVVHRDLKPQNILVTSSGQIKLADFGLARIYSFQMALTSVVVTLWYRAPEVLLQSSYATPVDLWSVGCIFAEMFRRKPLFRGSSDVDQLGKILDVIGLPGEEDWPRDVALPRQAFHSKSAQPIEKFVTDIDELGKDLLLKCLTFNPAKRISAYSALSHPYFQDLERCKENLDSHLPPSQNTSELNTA
T1 sequence (P30281 whole entry partner): as the sequence (P30281 whole entry partner) above

Row | SMILES | IC50 (CDK6/cyclin D3; [1]) | IC50 (CDK4/cyclin D3; [1]) | IC50 (CDK6/cyclin D3; [2]) | IC50 (CDK4/cyclin D3; [3])
1 | Cn1ncc(C#Cc2nc(N[C@@H]3CCOC[C@H]3O)ncc2Cl)c1C(C)(C)C [Example 127, (3 S,4R)-4-((4-((5-(tert-butyl)-1-methyl-1H-pyrazol-4-yl)ethynyl)-5-chloropyrimidin-2-yl)amino)tetrahydro-2H-pyran-3-ol] | 455 nM | 137 nM | – | –
2 | CC(C)n1c(C#Cc2nc(N[C@@H]3CCOC[C@H]3O)ncc2Cl)cnc1CC1(N)CCCC1 [Example 131, (3S,4R)-4-((4-((2-((1-aminocyclopentyl)methyl)-1-isopropyl-1H-imidazol-5-yl)ethynyl)-5-chloropyrimidin-2-yl)amino)tetrahydro-2H-pyran-3-ol] | 684 nM | 23.2 nM | – | –
3 | CN(C)c1c(C#Cc2nc(N[C@@H]3CCOC[C@H]3O)ncc2Cl)cnn1C [Example 130, (3 S,4R)-4-((5-chloro-4-((5-(dimethylamino)-1-methyl-1H-pyrazol-4-yl)ethynyl)pyrimidin-2-yl)amino)tetrahydro-2H-pyran-3-ol] | 222 nM | 23.5 nM | – | –
4 | CC(C)n1c(C#Cc2nc(N[C@@H]3CCOC[C@H]3O)ncc2Cl)cnc1CN1CCC[C@H](C#N)C1 [Example 103, (S)-1-((5-((5-chloro-2-(((3 S,4R)-3-hydroxytetrahydro-2H-pyran-4-yl)amino)pyrimidin-4-yl)ethynyl)-1-isopropyl-1H-imidazol-2-yl)methyl)piperidin-3-carbonitrile] | 256 nM | 11.9 nM | – | –
5 | CC(C)n1c(C#Cc2nc(N[C@@H]3CCOC[C@H]3O)ncc2Cl)cnc1C1(O)CCCC1 [Example 90, (3 S,4R)-4-((5-chloro-4-((2-(1-hydroxycyclopentyl)-1-isopropyl-1H-imidazol-5-yl)ethynyl)pyrimidin-2-yl)amino)tetrahydro-2H-pyran-3-ol] | 253 nM | 23 nM | – | –
6 | CC(C)n1c(C#Cc2nc(N[C@H]3CC[C@H](NS(C)(=O)=O)CC3)ncc2Cl)cnc1C(C)(C)O [Example 99, N-((1R,4R)-4-((5-chloro-4-((2-(2-hydroxypropan-2-yl)-1-isopropyl-1H-imidazol-5-yl)ethynyl)pyrimidin-2-yl)amino)cyclohexyl)methanesulfonamide] | 190 nM | 28.1 nM | – | –
7 | CC(C)n1c(C#Cc2nc(N[C@@H]3CCOC[C@H]3O)ncc2Cl)cnc1[C@H](C)N1CCC[C@H](O)C1 [Example 124, (S)-1-((S)-1-(5-((5-chloro-2-(((3 S,4R)-3-hydroxytetrahydro-2H-pyran-4-yl)amino)pyrimidin-4-yl)ethynyl)-1-isopropyl-1H-imidazol-2-yl)ethyl)piperidin-3-ol] | 1160 nM | 182 nM | – | –
8 | CC(C)c1c(C#Cc2nc(N[C@@H]3CCOC[C@H]3O)ncc2Cl)cnn1CC(C)(C)O [Example 64, (3 S,4R)-4-((5-chloro-4-((1-(2-hydroxy-2-methylpropyl)-5-isopropyl-1H-pyrazol-4-yl)ethynyl)pyrimidin-2-yl)amino)tetrahydro-2H-pyran-3-ol] | – | – | 132 nM | 13.2 nM
9 | CC(C)n1c(C#Cc2nc(N[C@@H]3CCOC[C@H]3F)ncc2Cl)cnc1C(C)(C)O [Example 91, 2-(5-((5-chloro-2-(((3 S,4R)-3-fluorotetrahydro-2H-pyran-4-yl)amino)pyrimidin-4-yl)ethynyl)-1-isopropyl-1H-imidazol-2-yl)propan-2-ol] | 333 nM | 88.2 nM | – | –
10 | CC(C)c1c(C#Cc2nc(Nc3ccc(C4CCN(C)CC4)cn3)ncc2F)cnn1C [Example 59, 5-fluoro-4-((5-isopropyl-1-methyl-1H-pyrazol-4-yl)ethynyl)-N-(5-(1-methylpiperidin-4-yl)pyridin-2-yl)pyrimidin-2-amine] | – | – | 38.3 nM | 9.64 nM
11 | CC1(C)OCCn2ncc(C#Cc3nc(N[C@@H]4CCOC[C@H]4O)ncc3Cl)c21 [Example 111, (3 S,4R)-4-((5-chloro-4-((4,4-dimethyl-6,7-dihydro-4H-pyrazolo[5,1-c][1,4]oxazin-3-yl)ethynyl)pyrimidin-2-yl)amino)tetrahydro-2H-pyran-3-ol] | 335 nM | 47.1 nM | – | –
12 | CC(C)n1c(C#Cc2nc(Nc3ccc(N4CCN(C)CC4)cn3)ncc2Cl)cnc1C(C)(C)O [Example 66, 2-(5-((5-chloro-2-((5-(4-methylpiperazin-1-yl)pyridin-2-yl)amino)pyrimidin-4-yl)ethynyl)-1-isopropyl-1H-imidazol-2-yl)propan-2-ol] | – | – | 1.9 nM | 1.03 nM
13 | CC(C)n1c(C#Cc2nc(N[C@@H]3CCOC[C@H]3O)ncc2Cl)cnc1CN1CCC[C@@H](C#N)C1 [Example 98, (R)-1-((5-((5-chloro-2-(((3 S,4R)-3-hydroxytetrahydro-2H-pyran-4-yl)amino)pyrimidin-4-yl)ethynyl)-1-isopropyl-1H-imidazol-2-yl)methyl)piperidin-3-carbonitrile] | 198 nM | 8.08 nM | – | –
14 | CC(C)n1c(C#Cc2nc(N[C@@H]3CCOC[C@H]3O)ncc2Cl)cnc1CN1CCCC(C)(O)C1 (stereo partly drawn) [Example 110, 1-((5-((5-chloro-2-(((3 S,4R)-3-hydroxytetrahydro-2H-pyran-4-yl)amino)pyrimidin-4-yl)ethynyl)-1-isopropyl-1H-imidazol-2-yl)methyl)-3-methylpiperidin-3-ol] | 451 nM | 36.1 nM | – | –

Continued by falling IC50 (CDK6/cyclin D3; [1]), values first:

Row | IC50 (CDK6/cyclin D3; [1]) | IC50 (CDK4/cyclin D3; [1]) | IC50 (CDK6/cyclin D3; [2]) | IC50 (CDK4/cyclin D3; [3]) | SMILES
15 | 135 nM | 21.7 nM | – | – | CC(C)n1c(C#Cc2cc(N[C@@H]3CCOC[C@H]3O)ncc2Cl)cnc1C(C)(C)O [Example 118, (3 S,4R)-4-((5-chloro-4-((2-(2-hydroxypropan-2-yl)-1-isopropyl-1H-imidazol-5-yl)ethynyl)pyridin-2-yl)amino)tetrahydro-2H-pyran-3-ol]
16 | 75.9 nM | 9.24 nM | – | – | CC(C)n1c(C#Cc2nc(N[C@@H]3CCOC[C@H]3O)ncc2Cl)cnc1C1(O)CC1 [Example 121, (3 S,4R)-4-((5-chloro-4-((2-(1-hydroxycyclopropyl)-1-isopropyl-1H-imidazol-5-yl)ethynyl)pyrimidin-2-yl)amino)tetrahydro-2H-pyran-3-ol]
17 | 65.4 nM | 11.6 nM | – | – | CC(C)n1c(C#Cc2nc(N[C@@H]3CCOC[C@H]3O)ncc2Cl)cnc1C(C)(O)C1CC1 (stereo partly drawn) [Example 125, (3 S,4R)-4-((5-chloro-4-((2-(1-cyclopropyl-1-hydroxyethyl)-1-isopropyl-1H-imidazol-5-yl)ethynyl)pyrimidin-2-yl)amino)tetrahydro-2H-pyran-3-ol]
18 | 45.6 nM | 5.95 nM | – | – | CC(C)n1c(C#Cc2nc(Nc3ccc(N4CC5(CN(CC(F)(F)F)C5)C4)cn3)ncc2Cl)cnc1CN1CCC[C@H](O)C1 [Example 113, (S)-1-((5-((5-chloro-2-((5-(6-(2,2,2-trifluoroethyl)-2,6-diazaspiro[3.3]heptan-2-yl)pyridin-2-yl)amino)pyrimidin-4-yl)ethynyl)-1-isopropyl-1H-imidazol-2-yl)methyl)piperidin-3-ol]
19 | 45.2 nM | 5.57 nM | – | – | CCN1CC2(C1)CN(c1ccc(Nc3ncc(Cl)c(C#Cc4cnc(CN5[C@@H](C)COC[C@@H]5C)n4C(C)C)n3)nc1)C2 [Example 104, 5-chloro-4-((2-(((3 S,5 S)-3,5-dimethylmorpholino)methyl)-1-isopropyl-1H-imidazol-5-yl)ethynyl)-N-(5-(6-ethyl-2,6-diazaspiro[3.3]heptan-2-yl)pyridin-2-yl)pyrimidin-2-amine]
20 | 38.4 nM | 5.92 nM | – | – | [2H]C(C)(O)c1ncc(C#Cc2nc(N[C@@H]3CCOC[C@H]3O)ncc2Cl)n1C(C)C (stereo partly drawn) [Example 138, (3 S,4R)-4-((S-chloro-4-((2-(1-hydroxyethyl-1-d)-1-isopropyl-1H-imidazol-5-yl)ethynyl)pyrimidin-2-yl)amino)tetrahydro-2H-pyran-3-ol]
21 | 21 nM | 1.48 nM | – | – | CC(C)n1c(C#Cc2nc(N[C@@H]3CCN(S(C)(=O)=O)C[C@H]3O)ncc2Cl)cnc1CN1CCC[C@H](O)C1 [Example 129, (3R,4R)-4-((5-chloro-4-((2-(((S)-3-hydroxypiperidin-1-yl)methyl)-1-isopropyl-1H-imidazol-5-yl)ethynyl)pyrimidin-2-yl)amino)-1-(methanesulfonyl)piperidin-3-ol]
22 | 10.3 nM | 1.35 nM | – | – | CC(C)c1c(C#Cc2nc(N[C@@H]3CCN(S(C)(=O)=O)C[C@H]3O)ncc2Cl)cnn1C [Example 33, (3R,4R)-4-((5-chloro-4-((5-isopropyl-1-methyl-1H-pyrazol-4-yl)ethynyl)pyrimidin-2-yl)amino)-1-(methanesulfonyl)piperidin-3-ol]
